ChEMBL document CHEMBL4834415, “Distinct Lugdunins from a New Efficient Synthesis and Broad Exploitation of Its MRSA-Antimicrobial Structure” (2021)
Converted amounts (≈) assume the structure as drawn.

System: Staphylococcus aureus
Test: Antibacterial activity against methicillin-resistant Staphylococcus aureus USA300 LAC assessed as reduction in bacterial growth incubated for 21 hrs by broth dilution method
Assay type: functional

Going from `CC(C)C[C@H]1NC(=O)[C@@H]2CSC(N2)[C@H](C(C)C)NC(=O)[C@@H](C(C)C)NC(=O)[C@H](C(C)C)NC(=O)[C@@H](C(C)C)NC(=O)[C@H](Cc2c[nH]c3ccccc23)NC1=O` to `CC(C)C[C@@H]1NC(=O)[C@@H](C(C)C)NC(=O)[C@H](C(C)C)NC(=O)[C@@H](C(C)C)NC(=O)[C@@H]2CSC(N2)[C@H](C(C)C)NC(=O)[C@@H](Cc2c[nH]c3ccccc23)NC1=O`, the MIC falls from 128 µM (≈ 100 µg/mL) to 8 µM (≈ 6.26 µg/mL) (16-fold).

Compared with `CC(C)CC[C@H]1NC(=O)[C@@H]2CSC(N2)[C@H](C(C)C)NC(=O)[C@@H](C(C)C)NC(=O)[C@H](C(C)C)NC(=O)[C@@H](CC(C)C)NC(=O)[C@H](Cc2c[nH]c3ccccc23)NC1=O`, `CCC[C@H]1NC(=O)[C@@H]2CSC(N2)[C@H](C(C)C)NC(=O)[C@@H](C(C)C)NC(=O)[C@H](C(C)C)NC(=O)[C@@H](CC(C)C)NC(=O)[C@H](Cc2c[nH]c3ccccc23)NC1=O` is 3.9-fold lower in MIC: 61.7 µM (≈ 50 µg/mL) for the first, 16 µM (≈ 12.5 µg/mL) for the second.

`CC(C)C[C@H]1NC(=O)[C@H](Cc2cn(C)c3ccccc23)NC(=O)[C@@H](C(C)C)NC(=O)[C@@H]2CSC(N2)[C@H](C(C)C)NC(=O)[C@@H](C(C)C)NC(=O)[C@H](C(C)C)NC1=O` and `CC(C)C[C@H]1NC(=O)[C@H](Cc2ccccc2)NC(=O)[C@@H](C(C)C)NC(=O)[C@@H]2CSC(N2)[C@H](C(C)C)NC(=O)[C@@H](C(C)C)NC(=O)[C@H](C(C)C)NC1=O` are within 1.5-fold of each other in MIC: 15.7 µM (≈ 12.5 µg/mL) for the first, 16.8 µM (≈ 12.5 µg/mL) for the second.

Compared with `C#CC[C@@H]1NC(=O)[C@@H](C(C)C)NC(=O)[C@@H]2CSC(N2)[C@H](C(C)C)NC(=O)[C@@H](C(C)C)NC(=O)[C@H](C(C)C)NC(=O)[C@@H](CC(C)C)NC1=O`, `CC(C)C[C@H]1NC(=O)[C@H](Cc2ccc(O)cc2)NC(=O)[C@@H](C(C)C)NC(=O)[C@@H]2CSC(N2)[C@H](C(C)C)NC(=O)[C@@H](C(C)C)NC(=O)[C@H](C(C)C)NC1=O` is 1.8-fold higher in MIC: 72.4 µM (≈ 50.1 µg/mL) for the first, 132 µM (≈ 100 µg/mL) for the second.

Going from `C#CC[C@H]1NC(=O)[C@H](Cc2c[nH]c3ccccc23)NC(=O)[C@@H](C(C)C)NC(=O)[C@@H]2CSC(N2)[C@H](C(C)C)NC(=O)[C@@H](Cc2c[nH]c3ccccc23)NC(=O)[C@H](C(C)C)NC1=O` to `C#CC[C@H]1NC(=O)[C@@H]2CSC(N2)[C@H](C(C)C)NC(=O)[C@@H](Cc2c[nH]c3ccccc23)NC(=O)[C@H](C(C)C)NC(=O)[C@@H](CC(C)C)NC(=O)[C@H](Cc2c[nH]c3ccccc23)NC1=O`, the MIC falls from 58.8 µM (≈ 50.1 µg/mL) to 3.9 µM (≈ 3.38 µg/mL) (15-fold).

Going from `CC(C)C[C@H]1NC(=O)[C@H](Cc2c[nH]c3ccccc23)NC(=O)[C@@H](Cc2c[nH]c3ccccc23)NC(=O)[C@@H]2CSC(N2)[C@H](C(C)C)NC(=O)[C@@H](C(C)C)NC(=O)[C@H](C(C)C)NC1=O` to `CC(C)C[C@H]1NC(=O)[C@H](Cc2c[nH]c3ccccc23)NC(=O)[C@@H](C(C)C)NC(=O)[C@@H]2CSC(N2)[C@H](C(C)C)NC(=O)[C@@H](Cc2c[nH]c3ccccc23)NC(=O)[C@H](C(C)C)NC1=O`, the MIC falls from 28.8 µM (≈ 25.1 µg/mL) to 1.8 µM (≈ 1.57 µg/mL) (16-fold).

Going from `CC(C)C[C@H]1NC(=O)[C@H](Cc2c3ccccc3cc3ccccc23)NC(=O)[C@@H](C(C)C)NC(=O)[C@@H]2CSC(N2)[C@H](C(C)C)NC(=O)[C@@H](C(C)C)NC(=O)[C@H](C(C)C)NC1=O` to `CC[C@H](C)[C@H]1NC(=O)[C@@H]2CSC(N2)[C@H](C(C)C)NC(=O)[C@@H](Cc2c[nH]c3ccccc23)NC(=O)[C@H](C(C)C)NC(=O)[C@@H](CC(C)C)NC(=O)[C@H](Cc2c3ccccc3cc3ccccc23)NC1=O`, the MIC rises from 7.4 µM (≈ 6.25 µg/mL) to 106 µM (≈ 100 µg/mL) (14-fold).

Going from `C=CC[C@H]1NC(=O)[C@H](Cc2c[nH]c3ccccc23)NC(=O)[C@@H](C(C)C)NC(=O)[C@@H]2CSC(N2)[C@H](C(C)C)NC(=O)[C@@H](Cc2c[nH]c3ccccc23)NC(=O)[C@H](C(C)C)NC1=O` to `C=CC[C@H]1NC(=O)[C@@H]2CSC(N2)[C@H](C(C)C)NC(=O)[C@@H](Cc2c[nH]c3ccccc23)NC(=O)[C@H](C(C)C)NC(=O)[C@@H](CC(C)C)NC(=O)[C@H](Cc2c[nH]c3ccccc23)NC1=O`, the MIC falls from 58.6 µM (≈ 50 µg/mL) to 14.4 µM (≈ 12.5 µg/mL) (4.1-fold).

Compared with `CCC[C@H]1NC(=O)[C@H](Cc2c[nH]c3ccccc23)NC(=O)[C@@H](C(C)C)NC(=O)[C@@H]2CSC(N2)[C@H](C(C)C)NC(=O)[C@@H](Cc2c[nH]c3ccccc23)NC(=O)[C@H](C(C)C)NC1=O`, `CSCC[C@H]1NC(=O)[C@H](Cc2c[nH]c3ccccc23)NC(=O)[C@@H](C(C)C)NC(=O)[C@@H]2CSC(N2)[C@H](C(C)C)NC(=O)[C@@H](Cc2c[nH]c3ccccc23)NC(=O)[C@H](C(C)C)NC1=O` is 7.7-fold higher in MIC: 14.6 µM (≈ 12.5 µg/mL) for the first, 113 µM (≈ 100 µg/mL) for the second.

`CC(C)C[C@H]1NC(=O)[C@H](Cc2c[nH]c3ccccc23)NC(=O)[C@@H](C(C)(C)C)NC(=O)[C@@H]2CSC(N2)[C@H](C(C)C)NC(=O)[C@@H](C(C)C)NC(=O)[C@H](C(C)C)NC1=O` and `CC[C@@H](C)[C@H]1NC(=O)[C@@H]2CSC(N2)[C@H](C(C)C)NC(=O)[C@@H](C(C)C)NC(=O)[C@H](C(C)C)NC(=O)[C@@H](CC(C)C)NC(=O)[C@H](Cc2c[nH]c3ccccc23)NC1=O` are the same in MIC: 31.4 µM (≈ 25 µg/mL) for the first, 31.4 µM (≈ 25 µg/mL) for the second.

First: CC[C@@H](C)[C@H]1NC(=O)[C@H](Cc2c[nH]c3ccccc23)NC(=O)[C@@H](C(C)C)NC(=O)[C@@H]2CSC(N2)[C@H](C(C)C)NC(=O)[C@@H](C(C)C)NC(=O)[C@H](C(C)C)NC1=O
Second: CC[C@H](C)[C@H]1NC(=O)[C@H](Cc2c[nH]c3ccccc23)NC(=O)[C@@H](C(C)C)NC(=O)[C@@H]2CSC(N2)[C@H](C(C)C)NC(=O)[C@@H](C(C)C)NC(=O)[C@H](C(C)C)NC1=O
The MIC of the first is 2.2-fold lower: 14.4 µM (≈ 11.3 µg/mL) for the first, 31.9 µM (≈ 25 µg/mL) for the second.

`CC(C)[C@@H]1NC(=O)[C@@H](Cc2c[nH]c3ccccc23)NC(=O)[C@H](C(C)C)NC(=O)[C@@H](Cc2c[nH]c3ccccc23)NC(=O)[C@H](Cc2c[nH]c3ccccc23)NC(=O)[C@@H](C(C)C)NC(=O)[C@@H]2CSC1N2` and `CC(C)[C@@H]1NC(=O)[C@@H](Cc2c[nH]c3ccccc23)NC(=O)[C@H](C(C)C)NC(=O)[C@@H](Cc2ccccc2)NC(=O)[C@H](Cc2c[nH]c3ccccc23)NC(=O)[C@@H](C(C)C)NC(=O)[C@@H]2CSC1N2` are within 1.5-fold of each other in MIC: 106 µM (≈ 100 µg/mL) for the first, 111 µM (≈ 100 µg/mL) for the second.

`CC(C)C[C@H]1NC(=O)[C@H](Cc2c[nH]c3ccccc23)NC(=O)[C@@H](Cc2ccccc2)NC(=O)[C@@H]2CSC(N2)[C@H](C(C)C)NC(=O)[C@@H](C(C)C)NC(=O)[C@H](C(C)C)NC1=O` and `CC(C)C[C@H]1NC(=O)[C@@H]2CSC(N2)[C@H](C(C)C)NC(=O)[C@@H](Cc2c[nH]c3ccccc23)NC(=O)[C@H](C(C)C)NC(=O)[C@@H](CC(C)C)NC(=O)[C@H](Cc2c[nH]c3ccccc23)NC1=O` are within 1.5-fold of each other in MIC: 120 µM (≈ 100 µg/mL) for the first, 113 µM (≈ 99.9 µg/mL) for the second.

`CC(C)C[C@H]1NC(=O)[C@@H]2Cc3ccccc3CN2C(=O)[C@@H](C(C)C)NC(=O)[C@@H]2CSC(N2)[C@H](C(C)C)NC(=O)[C@@H](C(C)C)NC(=O)[C@H](C(C)C)NC1=O` and `CC(C)[C@@H]1NC(=O)[C@@H](Cc2c[nH]c3ccccc23)NC(=O)[C@H](C(C)C)NC(=O)[C@H]2CCCN2C(=O)[C@H](Cc2c[nH]c3ccccc23)NC(=O)[C@@H](C(C)C)NC(=O)[C@@H]2CSC1N2` are within 1.5-fold of each other in MIC: 132 µM (≈ 100 µg/mL) for the first, 117 µM (≈ 100 µg/mL) for the second.

Compared with `CC(C)[C@@H]1NC(=O)[C@@H](Cc2c[nH]c3ccccc23)NC(=O)[C@H](C(C)C)NC(=O)[C@@H](C(C)(C)C)NC(=O)[C@H](Cc2c[nH]c3ccccc23)NC(=O)[C@@H](C(C)C)NC(=O)[C@@H]2CSC1N2`, `CC(C)[C@@H]1NC(=O)[C@@H](Cc2c[nH]c3ccccc23)NC(=O)[C@H](C(C)C)NC(=O)C2(CC2)NC(=O)[C@H](Cc2c[nH]c3ccccc23)NC(=O)[C@@H](C(C)C)NC(=O)[C@@H]2CSC1N2` is 4.1-fold higher in MIC: 28.8 µM (≈ 25.1 µg/mL) for the first, 119 µM (≈ 100 µg/mL) for the second.

Going from `CSCC[C@H]1NC(=O)[C@@H]2CSC(N2)[C@H](C(C)C)NC(=O)[C@@H](Cc2c[nH]c3ccccc23)NC(=O)[C@H](C(C)C)NC(=O)[C@@H](CC(C)C)NC(=O)[C@H](Cc2c[nH]c3ccccc23)NC1=O` to `CCC[C@H]1NC(=O)[C@@H]2CSC(N2)[C@H](C(C)C)NC(=O)[C@@H](Cc2c[nH]c3ccccc23)NC(=O)[C@H](C(C)C)NC(=O)[C@@H](CC(C)C)NC(=O)[C@H](Cc2c[nH]c3ccccc23)NC1=O`, the MIC falls from 111 µM (≈ 100 µg/mL) to 7.2 µM (≈ 6.26 µg/mL) (15-fold).
